Experimental data from publication PMC10178127, “Immunomodulatory Effects of the Pea Defensin Psd1 in the Caco-2/Immune Cells Co-Culture upon Candida albicans Infection” (International Journal of Molecular Sciences, 2023).

System: Caco-2 polarized monolayer
Assay: Multiplex xMAP cytokine production, Caco-2 monolayer without immune cells
Assay type: cell-based, human
Details: 24 h; for EGF level / Eotaxin level / FGF-2 level / FLT-3L level / Fractalkine level / G-CSF level / GM-CSF level / GROa level / IFNa2 level / IFNg level / IL-1RA level / IL-1a level / IL-1b level / IL-2 level / IL-3 level / IL-4 level / IL-5 level / IL-6 level / IL-7 level / IL-8 level / IL-9 level / IL-10 level / IL-12 (p40) level / IL-12 (p70) level / IL-13 level / IL-15 level / IL-17A level / IL-17E/IL-25 level / IL-17F level / IL-18 level / IL-22 level / IL-27 level / IP-10 level / M-GSF level / MCP-1 level / MCP-3 level / MDC level / MIG level / MIP-1a level / MIP-1b level / PDGF-AA level / PDGF-AB/BB level / RANTES level / TGF-a level / TNFa level / TNFb level / VEGFa level / sCD40L level: 2 µM apical, basolateral medium
Experimental: To estimate the impact of Candida albicans on cytokine production by intestinal-like epithelium, Caco-2 polarized monolayer without immune cells was used. […] A decrease in concentrations of IL-13 and IL-18 was also observed.
For growing cells, mimicking epithelial barriers in vitro, Caco-2 cells were seeded onto 24-well polycarbonate Millicell cell culture inserts (0.4 μm, 0.6 cm^2 surface area) (Millipore, Burlington, MA, USA), precoated with 0.2% bovine gelatin (Sigma-Aldrich), at a density of 2.5 × 10^5 cells/cm^2. The cells were grown for 21 days in a complete DMEM/F12 (1:1) medium with re-feeding every 2–3 days with a fresh complete medium. The integrity of the Caco-2 cell monolayer was checked by measuring the transepithelial electrical resistance (TEER) using a Millicell-ERS Voltohmmeter (Millipore). Only cell monolayers with TEER > 400 Ωcm^2 (after subtracting TEER in blank inserts without Caco-2 cells) were used in transport across epithelial monolayer and cytokine production experiments.
Monocytes and moDCs were seeded into the wells of 48- and 24-well plates in the complete RPMI-1640 medium supplemented with 10% human AB serum (HABS, Capricorn Scientific) without antibiotics 24 h prior to the experiment, and kept in a humidified CO2-incubator (5% CO2, 37 °C). After 24 h, the medium in the wells of the 48-well plate was replaced by fresh complete RPMI-1640 medium with 10% HABS, supplemented with 2 µM of Psd1 for the sample wells or fresh medium alone for the control wells. Medium in the wells of the 24-well plate was replaced by fresh complete RPMI-1640 medium with 10% human serum without antibiotics. Then, Millicell inserts with Caco-2 monolayers with TEER > 400 Ωcm^2 were placed into the wells of the 24-well plate, containing monocytes or moDCs. Wells with Millicell inserts with Caco-2 monolayers without immune cells were used as control wells. Medium in apical chambers of Millicell inserts was replaced by fresh complete RPMI-1640 with 10% human serum medium containing Psd1 at the final concentration of 2 µM or Candida albicans at the concentration of 5 × 10^4 cells/mL or yeast cells together with the pea defensin at the same concentration. Fresh complete RPMI-1640 medium only with 10% human serum and without antibiotics was used in control wells. Plates were kept in CO2-incubator (5% CO2, 37 °C) for another 24 h. Culture supernatants from the wells of the 48-well plate and basolateral chambers of the 24-well plate were collected and stored at −70 °C degrees less than one month prior to the analytes assessment.
The following 48 analytes were measured at a protein level by multiplex xMAP technology using the MILLIPLEX Human Cytokine/Chemokine/Growth Factor Panel A kit (HCYTA-60K-PX48, Merck, Darmstadt, Germany): sCD40L, EGF, Eotaxin-1/CCL11, FGF-2/FGF-basic, Flt-3 ligand, Fractalkine/CX3CL1, G-CSF, GM-CSF, GROα/CXCL1, IFNα2, IFNγ, IL-1α, IL-1β, IL-1RA, IL-2, IL-3, IL-4, IL-5, IL-6, IL-7, IL-8/CXCL8, IL-9, IL-10, IL-12(p40), IL-12(p70), IL-13, IL-15, IL-17A/CTLA8, IL-17E/IL-25, IL-17F, IL-18, IL-22, IL-27, IP-10/CXCL10, MCP-1/CCL2, MCP-3/CCL7, M-CSF, MDC/CCL22, MIG/CXCL9, MIP-1α/CCL3, MIP-1β/CCL4, PDGF-AA, PDGF-AB/BB, RANTES/CCL5, TGFα, TNFα, TNFβ, and VEGF-A. Multiplex-based assay read-out was performed using the MAGPIX system (Merck) with the xPONENT 4.2 software (Merck) in accordance with the manufacturer’s instruction with overnight incubation of the samples with primary antibodies. A final analysis was carried out with the MILLIPLEX Analyst v5.1 software (Merck). Measurements were performed twice for each sample. Release of the analytes in control and experimental samples was compared with an unpaired two-sample t-test using GraphPad Prism v.8.0.1 (GraphPad Software, Inc., San Diego, CA, USA). The p values ≤ 0.05 were considered significant.

Psd1: pea defensin from Pisum sativum (UNIPROT P81929), recombinant peptide overexpressed in Escherichia coli (KTCEHLADTYRGVCFTNASCDDHCKNKAHLISGTCHNWKCFCTQNC; UniProt P81929 1-46, looked up)
EGF level (Caco-2+Candida+Psd1): 1.19 pg/mL | Eotaxin level (Caco-2+Candida+Psd1): <3.52↓ pg/ml | FGF-2 level (Caco-2+Candida+Psd1): <13.35↓ pg/ml | FLT-3L level (Caco-2+Candida+Psd1): <0.40↓ pg/ml | Fractalkine level (Caco-2+Candida+Psd1): <17.82↓ pg/ml | G-CSF level (Caco-2+Candida+Psd1): <3.01↓ pg/ml | GM-CSF level (Caco-2+Candida+Psd1): <0.89↓ pg/ml | GROa level (Caco-2+Candida+Psd1): 34.82 pg/mL | IFNa2 level (Caco-2+Candida+Psd1): <4.56↓ pg/ml | IFNg level (Caco-2+Candida+Psd1): <2.23↓ pg/ml | IL-1RA level (Caco-2+Candida+Psd1): <0.66↓ pg/ml | IL-1a level (Caco-2+Candida+Psd1): <3.42↓ pg/ml | IL-1b level (Caco-2+Candida+Psd1): <2.26↓ pg/ml | IL-2 level (Caco-2+Candida+Psd1): <0.95↓ pg/ml | IL-3 level (Caco-2+Candida+Psd1): <0.60↓ pg/ml | IL-4 level (Caco-2+Candida+Psd1): <1.14↓ pg/ml | IL-5 level (Caco-2+Candida+Psd1): <0.30↓ pg/ml | IL-6 level (Caco-2+Candida+Psd1): 0.67 pg/mL | IL-7 level (Caco-2+Candida+Psd1): <0.38↓ pg/ml | IL-8 level (Caco-2+Candida+Psd1): 4.2 pg/mL | IL-9 level (Caco-2+Candida+Psd1): <2.08↓ pg/ml | IL-10 level (Caco-2+Candida+Psd1): <1.24↓ pg/ml | IL-12 (p40) level (Caco-2+Candida+Psd1): <3.56↓ pg/ml | IL-12 (p70) level (Caco-2+Candida+Psd1): <1.68↓ pg/ml | IL-13 level (Caco-2+Candida+Psd1): <2.61↓ pg/ml | IL-15 level (Caco-2+Candida+Psd1): <1.43↓ pg/ml | IL-17A level (Caco-2+Candida+Psd1): <2.09↓ pg/ml | IL-17E/IL-25 level (Caco-2+Candida+Psd1): <18.85↓ pg/ml | IL-17F level (Caco-2+Candida+Psd1): <19.03↓ pg/ml | IL-18 level (Caco-2+Candida+Psd1): 2.95 pg/mL | IL-22 level (Caco-2+Candida+Psd1): <5.23↓ pg/ml | IL-27 level (Caco-2+Candida+Psd1): <11.43↓ pg/ml | IP-10 level (Caco-2+Candida+Psd1): 5.8 pg/mL | M-GSF level (Caco-2+Candida+Psd1): <24.28↓ pg/ml | MCP-1 level (Caco-2+Candida+Psd1): <2.03↓ pg/ml | MCP-3 level (Caco-2+Candida+Psd1): <4.18↓ pg/ml | MDC level (Caco-2+Candida+Psd1): <0.30↓ pg/ml | MIG level (Caco-2+Candida+Psd1): <3.51↓ pg/ml | MIP-1a level (Caco-2+Candida+Psd1): <1.88↓ pg/ml | MIP-1b level (Caco-2+Candida+Psd1): <0.16↓ pg/ml | PDGF-AA level (Caco-2+Candida+Psd1): 160.02 pg/mL | PDGF-AB/BB level (Caco-2+Candida+Psd1): <5.84↓ pg/ml | RANTES level (Caco-2+Candida+Psd1): <0.62↓ pg/ml | TGF-a level (Caco-2+Candida+Psd1): <0.63↓ pg/ml | TNFa level (Caco-2+Candida+Psd1): <3.89↓ pg/ml | TNFb level (Caco-2+Candida+Psd1): 1.64 pg/mL | VEGFa level (Caco-2+Candida+Psd1): 197.1 pg/mL | sCD40L level (Caco-2+Candida+Psd1): <4.88↓ pg/ml | EGF level (Caco-2+Psd1): 1.19 pg/mL | Eotaxin level (Caco-2+Psd1): <3.52↓ pg/ml | FGF-2 level (Caco-2+Psd1): <13.35↓ pg/ml | FLT-3L level (Caco-2+Psd1): 0.46 pg/mL | Fractalkine level (Caco-2+Psd1): <17.82↓ pg/ml | G-CSF level (Caco-2+Psd1): <3.01↓ pg/ml | GM-CSF level (Caco-2+Psd1): <0.89↓ pg/ml | GROa level (Caco-2+Psd1): 27.77 pg/mL | IFNa2 level (Caco-2+Psd1): <4.56↓ pg/ml | IFNg level (Caco-2+Psd1): <2.23↓ pg/ml | IL-1RA level (Caco-2+Psd1): <0.66↓ pg/ml | IL-1a level (Caco-2+Psd1): 3.99 pg/mL | IL-1b level (Caco-2+Psd1): <2.26↓ pg/ml | IL-2 level (Caco-2+Psd1): <0.95↓ pg/ml | IL-3 level (Caco-2+Psd1): <0.60↓ pg/ml | IL-4 level (Caco-2+Psd1): 2.07 pg/mL | IL-5 level (Caco-2+Psd1): <0.30↓ pg/ml | IL-6 level (Caco-2+Psd1): 2.29 pg/mL | IL-7 level (Caco-2+Psd1): <0.38↓ pg/ml | IL-8 level (Caco-2+Psd1): 11.44 pg/mL | IL-9 level (Caco-2+Psd1): <2.08↓ pg/ml | IL-10 level (Caco-2+Psd1): <1.24↓ pg/ml | IL-12 (p40) level (Caco-2+Psd1): <3.56↓ pg/ml | IL-12 (p70) level (Caco-2+Psd1): <1.68↓ pg/ml | IL-13 level (Caco-2+Psd1): 6.35 pg/mL | IL-15 level (Caco-2+Psd1): <1.43↓ pg/ml | IL-17A level (Caco-2+Psd1): <2.09↓ pg/ml | IL-17E/IL-25 level (Caco-2+Psd1): <18.85↓ pg/ml | IL-17F level (Caco-2+Psd1): <19.03↓ pg/ml | IL-18 level (Caco-2+Psd1): 3.42 pg/mL | IL-22 level (Caco-2+Psd1): <5.23↓ pg/ml | IL-27 level (Caco-2+Psd1): <11.43↓ pg/ml | IP-10 level (Caco-2+Psd1): 7.04 pg/mL | M-GSF level (Caco-2+Psd1): <24.28↓ pg/ml | MCP-1 level (Caco-2+Psd1): <2.03↓ pg/ml | MCP-3 level (Caco-2+Psd1): <4.18↓ pg/ml | MDC level (Caco-2+Psd1): <0.30↓ pg/ml | MIG level (Caco-2+Psd1): <3.51↓ pg/ml | MIP-1a level (Caco-2+Psd1): <1.88↓ pg/ml | MIP-1b level (Caco-2+Psd1): <0.16↓ pg/ml | PDGF-AA level (Caco-2+Psd1): 347.49 pg/mL | PDGF-AB/BB level (Caco-2+Psd1): <5.84↓ pg/ml | RANTES level (Caco-2+Psd1): <0.62↓ pg/ml | TGF-a level (Caco-2+Psd1): 0.67 pg/mL | TNFa level (Caco-2+Psd1): <3.89↓ pg/ml | TNFb level (Caco-2+Psd1): 5.02 pg/mL | VEGFa level (Caco-2+Psd1): 413.86 pg/mL | sCD40L level (Caco-2+Psd1): <4.88↓ pg/ml | IL-6, IL-8/CXCL8, and IP-10 production (Caco-2, 2 μM apical): increase | direct immunomodulatory action on epithelial cells (Caco-2, 2 μM apical): no significant direct immunomodulatory action
